# From US20120121591A1 (priority 2009, published 2012)
# Legend:
# Format in all cases: cell-based
# [1] = test system: IFN-g secretion from T cells in human whole blood; settings: read-out: WB (IFNg) IC50 (nM, Avg)
# [2] = test system: IL-2 secretion from T cells in human whole blood; settings: read-out: WB (IL-2) IC50 (nM, Avg)
# [3] = target: hKv1.3 (Homo sapiens, UniProt P22001); assay: cell-based; settings: Kv1.3 (IWQ) IC50 (nM, Avg)
# Chain of hKv1.3 (P22001 whole entry): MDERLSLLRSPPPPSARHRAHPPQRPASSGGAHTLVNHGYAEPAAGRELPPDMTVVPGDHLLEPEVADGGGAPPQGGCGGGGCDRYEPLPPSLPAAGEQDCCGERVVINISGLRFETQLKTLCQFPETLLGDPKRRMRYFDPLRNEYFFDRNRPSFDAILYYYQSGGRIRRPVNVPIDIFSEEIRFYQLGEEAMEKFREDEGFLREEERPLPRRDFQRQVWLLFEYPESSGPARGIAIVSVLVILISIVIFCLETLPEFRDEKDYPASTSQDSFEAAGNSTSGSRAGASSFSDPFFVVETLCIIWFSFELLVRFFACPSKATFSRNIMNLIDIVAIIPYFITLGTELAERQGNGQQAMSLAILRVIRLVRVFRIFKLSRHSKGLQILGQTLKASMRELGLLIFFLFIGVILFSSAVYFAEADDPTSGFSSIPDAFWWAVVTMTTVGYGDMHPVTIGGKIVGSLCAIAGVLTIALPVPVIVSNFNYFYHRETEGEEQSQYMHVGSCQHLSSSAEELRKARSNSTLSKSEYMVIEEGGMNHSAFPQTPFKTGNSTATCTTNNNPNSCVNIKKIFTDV
Structure (SMILES),IC50 [1] [nM],IC50 [2] [nM],IC50 [3] [nM]
"CC[C@H](C)[C@@H]1NC(=O)[C@@H](NC(=O)[C@H](CO)NC(=O)[C@@H](N)CCCNC(=N)N)CSSC[C@@H](C(N)=O)NC(=O)[C@H]([C@@H](C)O)NC(=O)CNC(=O)[C@@H]2CSSC[C@@H]3NC(=O)[C@H](CCCCN)NC(=O)[C@H](Cc4ccccc4)NC(=O)[C@H](C)NC(=O)[C@H]([C@@H](C)O)NC(=O)[C@H](CSSC[C@H](NC(=O)[C@H](Cc4ccccc4)NC(=O)[C@H](CO)NC(=O)[C@H](CC(C)C)NC(=O)[C@H](CCCNC(=N)N)NC(=O)[C@H](Cc4ccc(O)cc4)NC(=O)[C@H](CCCCN)NC(=O)[C@H](Cc4ccc(O)cc4)NC(=O)[C@H](CO)NC(=O)[C@H](Cc4c[nH]cn4)NC(=O)[C@H](CCCCN)NC3=O)C(=O)N[C@@H](CCCNC(=N)N)C(=O)N[C@@H](CCCCN)C(=O)N[C@@H]([C@@H](C)O)C(=O)N2)NC(=O)[C@H](CCCNC(=N)N)NC(=O)[C@H](CO)NC(=O)[C@H](CCCCN)NC(=O)[C@@H]2CCCN2C(=O)[C@H]([C@@H](C)CC)NC(=O)[C@H]([C@@H](C)O)NC(=O)[C@H](CC(=O)O)NC1=O [[Lys16, Tyr21]ShK-amide]",3.19,2.83,0.246
"CC[C@H](C)[C@@H]1NC(=O)[C@@H](NC(=O)[C@H](CO)NC(=O)[C@@H](N)CCCNC(=N)N)CSSC[C@@H](C(N)=O)NC(=O)[C@H]([C@@H](C)O)NC(=O)CNC(=O)[C@@H]2CSSC[C@@H]3NC(=O)[C@H](CCCCN)NC(=O)[C@H](Cc4ccccc4)NC(=O)[C@H](C)NC(=O)[C@H]([C@@H](C)O)NC(=O)[C@H](CSSC[C@H](NC(=O)[C@H](Cc4ccccc4)NC(=O)[C@H](CO)NC(=O)[C@H](CC(C)C)NC(=O)[C@H](CCCNC(=N)N)NC(=O)[C@H](Cc4ccc(O)cc4)NC(=O)[C@H](CCCCN)NC(=O)[C@H](CCSC)NC(=O)[C@H](CO)NC(=O)[C@H](Cc4c[nH]cn4)NC(=O)[C@H](CCCCN)NC3=O)C(=O)N[C@@H](CCCCN)C(=O)N[C@@H](CCCNC(=N)N)C(=O)N[C@@H]([C@@H](C)O)C(=O)N2)NC(=O)[C@H](CCCNC(=N)N)NC(=O)[C@H](CO)NC(=O)[C@H](CCCCN)NC(=O)[C@@H]2CCCN2C(=O)[C@H]([C@@H](C)CC)NC(=O)[C@H]([C@@H](C)O)NC(=O)[C@H](CC(=O)O)NC1=O [[Lys16,29; Arg30]ShK-amide]",0.281,0.339,0.131
CC[C@H](C)[C@@H]1NC(=O)[C@@H](NC(=O)[C@H](CO)NC(=O)[C@@H](N)CCCNC(=N)N)CSSC[C@@H](C(=O)O)NC(=O)[C@H]([C@@H](C)O)NC(=O)CNC(=O)[C@@H]2CSSC[C@@H]3NC(=O)[C@H](CCC(N)=O)NC(=O)[C@H](Cc4ccccc4)NC(=O)[C@H](C)NC(=O)[C@H]([C@@H](C)O)NC(=O)[C@H](CSSC[C@H](NC(=O)[C@H](Cc4ccccc4)NC(=O)[C@H](CO)NC(=O)[C@H](Cc4cccc5ccccc45)NC(=O)[C@H](CCCNC(=N)N)NC(=O)[C@H](Cc4ccc(O)cc4)NC(=O)[C@H](CCCCN)NC(=O)[C@H](CCSC)NC(=O)[C@H](CO)NC(=O)[C@H](Cc4c[nH]cn4)NC(=O)[C@H](CCCCN)NC3=O)C(=O)N[C@@H](CCCNC(=N)N)C(=O)N[C@@H](CCCCN)C(=O)N[C@@H]([C@@H](C)O)C(=O)N2)NC(=O)[C@H](CCCNC(=N)N)NC(=O)[C@H](CO)NC(=O)[C@H](CCCCN)NC(=O)[C@@H]2CCCN2C(=O)[C@H]([C@@H](C)CC)NC(=O)[C@H]([C@@H](C)O)NC(=O)[C@H](CC(=O)O)NC1=O [[1-Nal25]ShK],0.084,0.061,0.106
CC[C@H](C)[C@@H]1NC(=O)[C@@H](NC(=O)[C@H](CO)NC(=O)[C@@H](N)CCCNC(=N)N)CSSC[C@@H](C(=O)O)NC(=O)[C@H]([C@@H](C)O)NC(=O)CNC(=O)[C@@H]2CSSC[C@@H]3NC(=O)[C@H](CCC(N)=O)NC(=O)[C@H](Cc4ccccc4)NC(=O)[C@H](C)NC(=O)[C@H]([C@@H](C)O)NC(=O)[C@H](CSSC[C@H](NC(=O)[C@H](Cc4ccccc4)NC(=O)[C@H](CO)NC(=O)[C@H](CC(C)C)NC(=O)[C@H](CCCNC(=N)N)NC(=O)[C@H](Cc4ccc(O)cc4)NC(=O)[C@H](CCCCN)NC(=O)[C@H](CCSC)NC(=O)[C@H](CO)NC(=O)[C@H](Cc4c[nH]cn4)NC(=O)[C@H](CCCCN)NC3=O)C(=O)N[C@@H](Cc3cccc4ccccc34)C(=O)N[C@@H](CCCCN)C(=O)N[C@@H]([C@@H](C)O)C(=O)N2)NC(=O)[C@H](CCCNC(=N)N)NC(=O)[C@H](CO)NC(=O)[C@H](CCCCN)NC(=O)[C@@H]2CCCN2C(=O)[C@H]([C@@H](C)CC)NC(=O)[C@H]([C@@H](C)O)NC(=O)[C@H](CC(=O)O)NC1=O [[1-Nal29]ShK],8.08,4.72,3.3
CC[C@H](C)[C@@H]1NC(=O)[C@@H](NC(=O)[C@H](CO)NC(=O)[C@@H](N)CCCNC(=N)N)CSSC[C@@H](C(=O)O)NC(=O)[C@H]([C@@H](C)O)NC(=O)CNC(=O)[C@@H]2CSSC[C@@H]3NC(=O)[C@H](CCC(N)=O)NC(=O)[C@H](Cc4ccccc4)NC(=O)[C@H](C)NC(=O)[C@H]([C@@H](C)O)NC(=O)[C@H](CSSC[C@H](NC(=O)[C@H](Cc4ccccc4)NC(=O)[C@H](CO)NC(=O)[C@H](CC(C)C)NC(=O)[C@H](CCCNC(=N)N)NC(=O)[C@H](Cc4ccc(O)cc4)NC(=O)[C@H](CCCCN)NC(=O)[C@H](CCSC)NC(=O)[C@H](CO)NC(=O)[C@H](Cc4c[nH]cn4)NC(=O)[C@H](Cc4cccc5ccccc45)NC3=O)C(=O)N[C@@H](CCCNC(=N)N)C(=O)N[C@@H](CCCCN)C(=O)N[C@@H]([C@@H](C)O)C(=O)N2)NC(=O)[C@H](CCCNC(=N)N)NC(=O)[C@H](CO)NC(=O)[C@H](CCCCN)NC(=O)[C@@H]2CCCN2C(=O)[C@H]([C@@H](C)CC)NC(=O)[C@H]([C@@H](C)O)NC(=O)[C@H](CC(=O)O)NC1=O [[1-Nal18]ShK],0.375,0.419,0.471
"CC[C@H](C)[C@@H]1NC(=O)[C@@H](NC(=O)[C@H](CO)NC(=O)[C@@H](N)CCCNC(=N)N)CSSC[C@@H](C(N)=O)NC(=O)[C@H]([C@@H](C)O)NC(=O)CNC(=O)[C@@H]2CSSC[C@@H]3NC(=O)[C@H](CCCCN)NC(=O)[C@H](Cc4ccccc4)NC(=O)[C@H](C)NC(=O)[C@H]([C@@H](C)O)NC(=O)[C@H](CSSC[C@H](NC(=O)[C@H](Cc4ccccc4)NC(=O)[C@H](Cc4ccc5ccccc5c4)NC(=O)[C@H](CC(C)C)NC(=O)[C@H](CCCNC(=N)N)NC(=O)[C@H](Cc4ccc(O)cc4)NC(=O)[C@H](CCCCN)NC(=O)[C@H](CCSC)NC(=O)[C@H](CO)NC(=O)[C@H](Cc4c[nH]cn4)NC(=O)[C@H](CCCCN)NC3=O)C(=O)N[C@@H](CCCCN)C(=O)N[C@@H](CCCCN)C(=O)N[C@@H]([C@@H](C)O)C(=O)N2)NC(=O)[C@H](CCCNC(=N)N)NC(=O)[C@H](CO)NC(=O)[C@H](CCCCN)NC(=O)[C@@H]2CCCN2C(=O)[C@H]([C@@H](C)CC)NC(=O)[C@H]([C@@H](C)O)NC(=O)[C@H](CC(=O)O)NC1=O [[Lys16,29;2-Na126]ShK-amide]",0.148,0.222,0.762
"CCC[C@@H]1NC(=O)[C@H](CO)NC(=O)[C@H](Cc2c[nH]cn2)NC(=O)[C@H](CCCCN)NC(=O)[C@@H]2CSSC[C@@H]3NC(=O)[C@H]([C@@H](C)O)NC(=O)[C@H](CCCCN)NC(=O)[C@H](CCCNC(=N)N)NC(=O)[C@H](CSSC[C@H](NC(=O)[C@H](CCCNC(=N)N)NC(=O)[C@H](CO)NC(=O)[C@H](CCCCN)NC(=O)[C@@H]4CCCN4C(=O)[C@H]([C@@H](C)CC)NC(=O)[C@H]([C@@H](C)O)NC(=O)[C@H](CC(=O)O)NC(=O)[C@H](CCC(=O)O)NC(=O)[C@@H](NC(=O)[C@H](CO)NC(=O)[C@@H](N)CCCNC(=N)N)CSSC[C@@H](C(=O)N[C@@H](C)C(=O)O)NC(=O)[C@H]([C@@H](C)O)NC(=O)CNC3=O)C(=O)N[C@@H]([C@@H](C)O)C(=O)N[C@@H](C)C(=O)N[C@@H](Cc3ccccc3)C(=O)N[C@@H](CCCCN)C(=O)N2)NC(=O)[C@H](Cc2ccccc2)NC(=O)[C@H](CO)NC(=O)[C@H](CC(C)C)NC(=O)[C@H](CCCNC(=N)N)NC(=O)[C@H](Cc2ccc(O)cc2)NC(=O)[C@H](CCCCN)NC1=O [[Glu4,Lys16,Nva21]ShK-Ala]",0.368,0.208,33.3
CC[C@H](C)[C@@H]1NC(=O)[C@@H](NC(=O)[C@H](CO)NC(=O)[C@@H](N)CCCNC(=N)N)CSSC[C@@H](C(=O)O)NC(=O)[C@H]([C@@H](C)O)NC(=O)CNC(=O)[C@@H]2CSSC[C@@H]3NC(=O)[C@H](CCC(N)=O)NC(=O)[C@H](Cc4ccccc4)NC(=O)[C@H](C)NC(=O)[C@H]([C@@H](C)O)NC(=O)[C@H](CSSC[C@H](NC(=O)[C@H](Cc4ccccc4)NC(=O)[C@H](CO)NC(=O)[C@H](CC(C)C)NC(=O)[C@H](CCCNC(=N)N)NC(=O)[C@H](Cc4ccc(O)cc4)NC(=O)[C@H](CCCCN)NC(=O)[C@H](CCCNC(=N)N)NC(=O)[C@H](CO)NC(=O)[C@H](Cc4c[nH]cn4)NC(=O)[C@H](CCCCN)NC3=O)C(=O)N[C@@H](CCCNC(=N)N)C(=O)N[C@@H](CCCCN)C(=O)N[C@@H]([C@@H](C)O)C(=O)N2)NC(=O)[C@H](CCCNC(=N)N)NC(=O)[C@H](CO)NC(=O)[C@H](CCCCN)NC(=O)[C@@H]2CCCN2C(=O)[C@H]([C@@H](C)CC)NC(=O)[C@H]([C@@H](C)O)NC(=O)[C@H](CC(=O)O)NC1=O [[Arg21]ShK],4.66,1.76,0.283
